Assay results from patent publication EP0929544B1, “TRICYCLIC ANTITUMOR COMPOUNDS BEING FARNESYL PROTEIN TRANSFERASE INHIBITORS” (SCHERING CORPORATION, priority 1996, dated 1998).
Read-outs that look alike come from different tables or passages of the source.

Key:
[1] = biological target: T1, Farnesyl protein transferase (FPT) (Rattus norvegicus, UniProt Q02293+Q04631); experiment: In vitro enzyme assay: inhibition of farnesyl protein transferase (transfer of [3H]farnesyl from [3H]farnesyl pyrophosphate to Ras-CVLS); type: biochemical; details: for FPT inhibition (percent inhibition): @ 0.06 µg/µL
T1 construct: Farnesyl protein transferase (FPT) was partially purified from rat brain; from tissue; host or cells: rat brain
Excerpt: 1. In vitro enzyme assays: Inhibition of farnesyl protein transferase and geranylgeranyl protein transferase.
Farnesyl protein transferase (FPT) was partially purified from rat brain by ammonium sulfate fractionation followed by Q-Sepharose (Pharmacia, Inc.) anion exchange chromatography essentially as described by Yokoyama et al (Yokoyama, K., et al., (1991), A protein geranylgeranyltransferase from bovine brain: Implications for protein prenylation specificity, Proc. Natl. Acad. Sci USA 88: 5302-5306, the disclosure of which is incorporated herein by reference thereto). Human famesyl protein transferase was also expressed in E. coli, using cDNA clones encoding both the a and b subunits. The methods used were similar to those published (Omer, C. et al., (1993), Characterization of recombinant human farnesyl protein transferase: Cloning, expression, famesyl diphosphate binding, and functional homology with yeast prenyl-protein transferases, Biochemistry 32:5167-5176). Human famesyl protein transferase was partially-purified from the soluble protein fraction of E. coli as described above. […] Two forms of val^12-Ha-Ras protein were prepared as substrates for these enzymes, differing in their carboxy terminal sequence. One form terminated in cysteine-valine-leucine-serine (Ras-CVLS) the other in cystein-valine-leucine-leucine (Ras-CVLL). Ras-CVLS is a substrate for the famesyl protein transferase while Ras-CVLL is a substrate for geranylgeranyl protein transferase I. The cDNAs encoding these proteins were constructed so that the proteins contain an amino-terminal extension of 6 histidine residues. Both proteins were expressed in Escherichia coli and purified using metal chelate affinity chromatography. The radiolabelled isoprenyl pyrophosphate substrates, [^3H]farnesyl pyrophosphate and [^3H]geranylgeranyl pyrophosphate, were purchased from DuPont/New England Nuclear.
Several methods for measuring famesyl protein transferase activity have been described (Reiss et al 1990, Cell 62: 81; Schaber et al 1990, J. Biol. Chem. 265: 14701; Manne et al 1990, PNAS 87: 7541; and Barbacid & Manne 1993, U.S. Patent No. 5,185,248). […] The reaction was allowed to proceed for 30 minutes at room temperature and then stopped with 0.5 ml of 4% sodium dodecyl sulfate (SDS) followed by 0.5 ml of cold 30% TCA. Samples were allowed to sit on ice for 45 minutes and precipitated Ras protein was then collected on GF/C filter paper mats using a Brandel cell harvester. Filter mats were washed once with 6% TCA, 2% SDS and radioactivity was measured in a Wallac 1204 Betaplate BS liquid scintillation counter. Percent inhibition was calculated relative to the DMSO vehicle control.

[2] = test system: Ras processing in COS monkey kidney cells; experiment: Cell-based assay: transient expression of val12-Ha-Ras-CVLS in COS cells, effect on Ras processing (immunoblot); details: Primates, read-out: INHIBITION OF RAS PROCESSING IC50
Excerpt: 2. Cell-Based Assay: Transient expression of val^12-Ha-Ras-CVLS and val^12-Ha-Ras-CVLL in COS monkey kidney cells: Effect of famesyl protein transferase inhibitors on Ras processing and on disordered cell growth induced by transforming Ras.
COS monkey kidney cells were transfected by electroporation with the plasmid pSV-SPORT (Gibco/BRL) containing a cDNA insert encoding either Ras-CVLS or Ras-CVLL, leading to transient overexpression of a Ras substrate for either famesyl protein transferase or geranylgeranyl protein transferase I, respectively (see above).
Following electroporation, cells were plated into 6-well tissue culture dishes containing 1.5 ml of Dulbecco's-modified Eagle's media (GIBCO, Inc.) supplemented with 10% fetal calf serum and the appropriate famesyl protein transferase inhibitors. After 24 hours, media was removed and fresh media containing the appropriate drugs was re-added.
48 hours after electroporation cells were examined under the microscope to monitor disordered cell growth induced by transforming Ras. Cells expressing transforming Ras become more rounded and refractile and overgrow the monolayer, reminiscent of the transformed phenotype. Cells were then photographed, washed twice with 1 ml of cold phosphate-buffered saline (PBS) and removed from the dish by scraping with a rubber policeman into 1 ml of a buffer containing 25 mM Tris, pH 8.0; 1 mM ethylenediamine tetraacetic acid; 1 mM phenylmethylsulfonyl fluoride; […]; and 0.1 mM pepstatin. Cells were lysed by homogenization and cell debris was removed by centrifugation at 2000 × g for 10 min.
Cellular protein was precipitated by addition of ice-cold trichloroacetic acid and redissolved in […] of SDS-electrophoresis sample buffer. Samples ([…]) were loaded onto 14% polyacrylamide minigels (Novex, Inc.) and electrophoresed until the tracking dye neared the bottom of the gel. Proteins resolved on the gels were electroblotted onto nitrocellulose membranes for immunodetection.
Membranes were blocked by incubation overnight at 4°C in PBS containing 2.5% dried milk and 0.5% Tween-20 and then incubated with a Ras-specific monoclonal antibody, Y13-259 (Furth, M.E., et al., (1982), Monoclonal antibodies to the p21 products of the transforming gene of Harvey murine sarcome virus and of the cellular ras gene family, J. Virol. 43: 294-304), in PBS containing 1% fetal calf serum for one hour at room temperature. After washing, membranes were incubated for one hour at room temperature with a 1:5000 dilution of secondary antibody, rabbit anti-rat IgG conjugated to horseradish peroxidase, in PBS containing 1% fetal calf serum. The presence of processed and unprocessed Ras-CVLS or Ras-CVLL was detected using a colorimetric peroxidase reagent (4-chloro-1-naphthol) as described by the manufacturer (Bio-Rad).

[3] = FPT INHIBITION, read-out: FPT IC50

T1 sequence (Q02293 whole entry, one chain of several): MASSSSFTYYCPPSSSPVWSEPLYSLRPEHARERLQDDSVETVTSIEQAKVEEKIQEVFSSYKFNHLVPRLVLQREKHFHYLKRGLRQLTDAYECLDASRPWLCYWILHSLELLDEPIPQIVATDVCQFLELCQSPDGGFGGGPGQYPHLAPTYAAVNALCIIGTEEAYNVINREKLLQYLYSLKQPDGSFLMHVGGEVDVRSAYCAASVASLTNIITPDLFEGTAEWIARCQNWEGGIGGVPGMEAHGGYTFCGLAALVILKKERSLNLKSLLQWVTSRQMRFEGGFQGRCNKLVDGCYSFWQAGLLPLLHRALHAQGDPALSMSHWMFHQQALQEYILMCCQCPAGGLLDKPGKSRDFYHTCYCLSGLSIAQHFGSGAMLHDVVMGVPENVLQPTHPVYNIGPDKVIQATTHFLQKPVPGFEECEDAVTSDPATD

SMILES | IC50 [1, 3] | other results
O=C(O)CCCCCC(=O)N1CCC([C@H]2c3ncc(Br)cc3CCc3cc(Cl)cc(Br)c32)CC1 [Example 58, (+)-SODIUM 4-(3,10-DIBROMO-8-CHLORO-6,11-DIHYDRO-5H-BENZO[5,6]CYCLO-HEPTA[1,2-b]PYRIDIN-11(R)-YL)-OMEGA-OXO -1-PIPERIDININE HEPTANOATE] | 9.1 nM | IC50 ([2]; COS): 300 nM
CN(C)C(=O)CCC(=O)N1CCC(C2c3ncc(Br)cc3CCc3cc(Cl)cc(Cl)c32)CC1 (single isomer, unassigned) [Example 13] | 15 nM | IC50 ([2]; ACTIVITY IN COS CELLS): 200 nM
O=C(CCC(=O)N1CCC(C2c3ncc(Br)cc3CCc3cc(Cl)cc(Cl)c32)CC1)N1CCCC1 (single isomer, unassigned) [Example 14] | 16 nM | IC50 ([2]; ACTIVITY IN COS CELLS): 250 nM
CN(C)CCCC(=O)N1CCC(C2c3ncc(Br)cc3CCc3cc(Cl)cc(Cl)c32)CC1 (single isomer, unassigned) [Example 6] |  | IC50 [1]: 6.5 nM
O=C(NCCCC(=O)N1CCC(C2c3ncc(Br)cc3CCc3cc(Cl)cc(Cl)c32)CC1)c1cccnc1 (single isomer, unassigned) [Example 18] |  | inhibition at 0.093 µM ([1]; @ 93 nM, read-out: FPT inhibition (percent inhibition)): 9%; IC50 ([2]; ACTIVITY IN COS CELLS): 540 nM
NCCCC(=O)N1CCC(C2c3ncc(Br)cc3CCc3cc(Cl)cc(Cl)c32)CC1 (single isomer, unassigned; (+)) [Example 27, (+)-1-(4-AMINO-1-OXOBUTYL)-4-(3-BROMO-8,10-DICHLORO-6,11-DIHYDRO-5H-BENZO[5,6]CYCLO-HEPTA[1,2-b]PYRIDIN-11-YL) PIPERIDINE] | 130 nM | 
NC(=O)NCCCC(=O)N1CCC(C2c3ncc(Br)cc3CCc3cc(Cl)cc(Cl)c32)CC1 (single isomer, unassigned; (+)) [Example 31] | 58 nM | 
O=C(CCCN1C(=O)c2ccncc2C1=O)N1CCC(C2c3ncc(Br)cc3CCc3cc(Cl)cc(Cl)c32)CC1 (single isomer, unassigned) [Example 33, 4-(8,10-DICHLORO-3-BROMO-6,11-DIHYDRO-5H-BENZO[5,6]CYCLO-HEPTA[1,2-b]PYRIDIN-11-YL)-1-[4-(1,3-DIHYDRO-1,3-DIOXO-2H-PYRROLO-[3,4c]-PYRIDINE-2-YL)-1-OXOBUTYL]PIPERIDINE] |  | inhibition at 0.0934 µM ([1]; read-out: FPT inhibition (percent inhibition)): 38.7%
COC(=O)CCC(=O)N1CCC([C@H]2c3ncc(Br)cc3CCc3cc(Cl)cc(Br)c32)CC1 [Example 48, (+)-METHYL 4-(3,10-DIBROMO-8-CHLORO-6,11-DIHYDRO-5H-BENZO[5,6]CYCLO-HEPTA[1,2-b]PYRIDIN-11(R)-YL)-GAMMA-OXO-1-PI[…]] |  | IC50 ([1]; read-out: FPT IC50, FPT INHIBITION): 9 nM
O=C(NCCCCC(=O)N1CCC(C2c3ncc(Br)cc3CCc3cc(Cl)cc(Cl)c32)CC1)c1ccccc1 (single isomer, unassigned) [Example 22] |  | FPT inhibition (percent inhibition) [1]: 41%@ 0.06 µg/µL
COC(=O)CCCCCC(=O)N1CCC([C@H]2c3ncc(Br)cc3CCc3cc(Cl)cc(Br)c32)CC1 [Example 57, (+)-METHYL 4-(3,10-DIBROMO-8-CHLORO-6,11-DIHYDRO-5H-BENZO[5,6]CYCLO-HEPTA[1,2-b]PYRIDIN-11(R)-YL)-OMEGA-OXO-1-PIPERIDININE HEPTANOATE] | 11 nM | 
CN(C)CCCC(=O)N1CCC(C2c3ncc(Br)cc3CCc3cc(Cl)cc(Br)c32)CC1 (single isomer, unassigned; (+)) [Example 2, (+)-4-(3,10-DIBROMO-8-CHLORO-6,11-DIHYDRO-5H-BENZO[5,6]CYCLO-HEPTA[1,2-b]PYRIDIN-11-YL)-1-[4-(DIMETHYLAMINO)-1-OXOBUTYL]PIPERIDINE] | 4 nM | IC50 ([2]; ACTIVITY IN COS CELLS): 13 nM
O=C(CCCC(=O)N1CCC(C2c3ncc(Br)cc3CCc3cc(Cl)cc(Cl)c32)CC1)Nc1ccccc1 (single isomer, unassigned) [Example 19] |  | FPT inhibition (percent inhibition) [1]: 21%@ 0.06 µg/µL

Second part, led by results:

IC50 [1, 3] | SMILES | other results
19 nM | O=C(CN1CCCC1=O)N1CCC(C2c3ncc(Br)cc3CCc3cc(Cl)cc(Cl)c32)CC1 (single isomer, unassigned) [Example 10] | IC50 ([2]; ACTIVITY IN COS CELLS): 500 nM
6 nM | O=C(CCN1CCCCC1)N1CCC(C2c3ncc(Br)cc3CCc3cc(Cl)cc(Cl)c32)CC1 (single isomer, unassigned) [Example 9] | 
> 100 nM | O=C(NCCCC(=O)N1CCC(C2c3ncc(Br)cc3CCc3cc(Cl)cc(Cl)c32)CC1)Nc1ccccc1 (single isomer, unassigned) [Example 16] | 
10 nM | NC(=O)CCCC(=O)N1CCC([C@H]2c3ncc(Br)cc3CCc3cc(Cl)cc(Br)c32)CC1 [Example 53, (+)-4-(3,10-DIBROMO-8-CHLORO-6,11-DIHYDRO-5H-BENZO[5,6]CYCLO-HEPTA[1,2-b]PYRIDIN-11(R)-YL)-DELTA-OXO-1-PIPERIDININE PENTANAMIDE] | 
~100 nM | O=C(CCCC(=O)N1CCC(C2c3ncc(Br)cc3CCc3cc(Cl)cc(Cl)c32)CC1)Nc1cccnc1 (single isomer, unassigned) [Example 17] | 
14 nM | CCN(CC)CCC(=O)N1CCC(C2c3ncc(Br)cc3CCc3cc(Cl)cc(Cl)c32)CC1 (single isomer, unassigned) [Example 8] | 
